Converted amounts (≈) assume the structure as drawn.
Target: T1, mushroom tyrosinase
T1 construct: gene PPO3; native mushroom enzyme preparation
Assay: absorbance at […] nm, L-DOPA oxidation (modified Masuda method)
Type: biochemical
Conditions: L-DOPA substrate, phosphate buffer pH 6.8, 23 °C, 10 min preincubation

SMILES | IC50 [µg/mL]
O=c1c(O[C@@H]2O[C@H](CO)[C@@H](O)[C@H](O)[C@H]2O)c(-c2ccc(O)cc2)oc2cc(O)cc(O)c12 [MP-1, Kaempferol-3-O-β-glucopyranoside] | 297.9 ± 1.2 (≈ 664 µM)
C[C@@H]1O[C@@H](OC[C@H]2O[C@@H](Oc3c(-c4ccc(O)c(O)c4)oc4cc(O)cc(O)c4c3=O)[C@H](O)[C@@H](O)[C@@H]2O)[C@H](O)[C@H](O)[C@H]1O [MP-2, Quercetin-3-O-rutinoside] | 115.2 ± 0.8 (≈ 189 µM)

From paper PMC11243039, “Antimicrobial, Antioxidant, and Antityrosinase Activities of Morina persica L. and Its Isolated Compounds” (Molecules, 2024)
